Data: patent US20240150377A1, “MODULATORS OF CYSTIC FIBROSIS TRANSMEMBRANE CONDUCTANCE REGULATOR” (VERTEX PHARMACEUTICALS INCORPORATED, priority 2020, published 2024)
Read-outs that look alike come from different tables or passages of the source. Values belong to the compound of their own block, whether it stands above or below them.

Biological target: T1, CFTR (Homo sapiens, UniProt P13569, DEL508-508)
T1 construct: endogenous in cells; host or cells: primary human bronchial epithelial cells from CF subjects (F508del/MF-HBE), differentiated at air-liquid interface
Experiment: HBE assay: Ussing chamber assay of CFTR-mediated short-circuit currents
Format: cell-based
Conditions: for EC50: read-out: HBE EC50
How it was run: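 CFTR-mediated Isc (μA/cm²) equals the peak response to apical 20 μM forskolin minus the residual after a 20 μM each BPO/GlyH-101/CFTR inhibitor 172 cocktail, recorded in Ussing chambers at Vhold 0 mV, 37 °C, pH 7.4, with 30 μM apical amiloride. Cells were F508del/MF HBE cultures preincubated 18-24 h with corrector (concentration range or 10 μM) plus 1 μM ivacaftor in 20% human serum.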

[1] = HBE assay, read-out: HBE Max activity (%)
[2] = HBE assay, 10 μM, read-out: HBE Activity at 10 μM (%)
[3] = Table 12, read-out: HBE Max Activity (%)
[4] = Table 11, read-out: HBE Max Activity (%)

T1 sequence (P13569 with tags, fused parts or gaps DEL508-508): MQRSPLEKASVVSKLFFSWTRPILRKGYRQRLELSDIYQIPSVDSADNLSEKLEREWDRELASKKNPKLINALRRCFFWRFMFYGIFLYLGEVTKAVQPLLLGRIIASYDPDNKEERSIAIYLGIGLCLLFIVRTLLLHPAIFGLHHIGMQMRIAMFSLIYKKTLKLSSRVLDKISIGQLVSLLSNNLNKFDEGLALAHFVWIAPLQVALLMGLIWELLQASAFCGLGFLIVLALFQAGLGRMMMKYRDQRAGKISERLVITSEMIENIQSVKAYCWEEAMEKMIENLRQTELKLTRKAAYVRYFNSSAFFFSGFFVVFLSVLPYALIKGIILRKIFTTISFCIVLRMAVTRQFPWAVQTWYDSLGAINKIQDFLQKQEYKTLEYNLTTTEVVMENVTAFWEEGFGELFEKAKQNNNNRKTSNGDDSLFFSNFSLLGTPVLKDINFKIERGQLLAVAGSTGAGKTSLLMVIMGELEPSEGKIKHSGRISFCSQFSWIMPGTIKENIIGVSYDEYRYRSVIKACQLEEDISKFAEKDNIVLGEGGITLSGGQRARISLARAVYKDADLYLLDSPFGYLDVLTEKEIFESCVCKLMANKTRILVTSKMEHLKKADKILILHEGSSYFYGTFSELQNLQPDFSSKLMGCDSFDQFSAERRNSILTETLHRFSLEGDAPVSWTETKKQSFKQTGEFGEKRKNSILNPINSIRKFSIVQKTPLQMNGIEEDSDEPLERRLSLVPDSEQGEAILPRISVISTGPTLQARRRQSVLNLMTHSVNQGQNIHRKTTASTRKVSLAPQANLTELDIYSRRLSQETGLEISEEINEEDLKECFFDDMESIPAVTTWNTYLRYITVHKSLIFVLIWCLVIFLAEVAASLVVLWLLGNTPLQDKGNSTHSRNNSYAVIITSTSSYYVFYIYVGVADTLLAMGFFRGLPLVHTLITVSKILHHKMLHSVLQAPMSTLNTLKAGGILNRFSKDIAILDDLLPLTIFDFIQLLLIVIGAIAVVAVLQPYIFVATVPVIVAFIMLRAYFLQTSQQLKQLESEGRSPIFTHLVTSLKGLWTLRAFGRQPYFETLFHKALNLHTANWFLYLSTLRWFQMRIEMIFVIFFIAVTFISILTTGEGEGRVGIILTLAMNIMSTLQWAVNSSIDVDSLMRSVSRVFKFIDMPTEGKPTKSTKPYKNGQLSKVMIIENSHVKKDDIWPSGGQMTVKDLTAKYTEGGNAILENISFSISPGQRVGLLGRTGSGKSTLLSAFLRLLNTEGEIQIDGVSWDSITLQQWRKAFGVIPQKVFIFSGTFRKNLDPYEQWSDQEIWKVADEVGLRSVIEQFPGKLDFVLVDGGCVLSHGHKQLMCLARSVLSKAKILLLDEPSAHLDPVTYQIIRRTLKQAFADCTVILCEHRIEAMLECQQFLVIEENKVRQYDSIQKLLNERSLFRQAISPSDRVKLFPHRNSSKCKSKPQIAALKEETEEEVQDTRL

SMILES: Cc1cccc(C)c1-c1cc2nc(n1)NS(=O)(=O)c1cccc(c1)C(=O)N(CC1CCCCO1)[C@H](CC(C)(C)C)CO2 (some centres unmarked) [Compound 833]
- Emax (Table 10, read-out: HBE Max activity (%)): > 60%

SMILES: Cc1cccc(C)c1-c1cc2nc(n1)NS(=O)(=O)c1cccc(c1)C(=O)N(Cc1ncc(C(C)C)s1)[C@H](CC(C)(C)C)CO2 [Compound 705]
- EC50 (Table 12): < 1000 nM
- Emax [3]: > 60%

SMILES: Cc1cccc(C)c1-c1cc2nc(n1)NS(=O)(=O)c1cccc(c1)C(=O)N(Cc1cc(CO)ccn1)[C@H](CC(C)(C)C)CO2 [Compound 811]
- EC50 (Table 11): < 1000 nM
- Emax [4]: > 60%

SMILES: Cc1cccc(C)c1-c1cc2nc(n1)NS(=O)(=O)c1cccc(c1)C(=O)N(Cc1ccnc(C(C)C)n1)[C@H](CC(C)(C)C)CO2 [Compound 584]
- EC50 (Table 12): < 1000 nM
- Emax [3]: > 60%

SMILES: Cc1cccc(C)c1-c1cc2nc(n1)NS(=O)(=O)c1cccc(c1)C(=O)N(Cc1ccc([Si](C)(C)C)cc1)[C@H](CC(C)(C)C)CO2 [Compound 795]
- activation at 10 µM (Table 10, at 10 μM, read-out: HBE activity at 10 (μM) (%)): > 60%

SMILES: Cc1cccc(C)c1-c1cc2nc(n1)NS(=O)(=O)c1cccc(c1)C(=O)N(Cc1cccc(N3CCC(C)(C)CC3)n1)[C@H](CC(C)(C)C)CO2 [Compound 474]
- EC50 (Table 11): < 1000 nM
- Emax [4]: > 60%

SMILES: Cc1cccc(C)c1-c1cc2nc(n1)NS(=O)(=O)c1cccc(c1)C(=O)N(Cc1cnc(N(C)CC(C)(C)C)cn1)[C@H](CC(C)(C)C)CO2 [Compound 899]
- EC50 (Table 11): < 1000 nM
- Emax [4]: > 60%

SMILES: Cc1cccc(C)c1-c1cc2nc(n1)NS(=O)(=O)c1cccc(c1)C(=O)N(Cc1ncc(N3CCC(C)(C)CC3)cn1)[C@H](CC(C)(C)C)CO2 [Compound 117, (11R)-6-(2,6-dimethylphenyl)-12-[[5-(4,4-dimethyl-1-piperidyl)pyrimidin-2-yl]methyl]-11-(2,2-dimethylpropyl)-2,2-dioxo-9-oxa-2λ^6-thia-3,5,12,19-tetrazatricyclo[12.3.1.14,8]nonadeca-1(18),4(19),5,7,14,16-hexaen-13-one]
- EC50 (Table 11): < 1000 nM
- Emax [4]: > 60%

SMILES: Cc1ccccc1CNC(=O)CN1C(=O)c2cccc(c2)S(=O)(=O)Nc2nc(cc(-c3c(C)cccc3C)n2)OC[C@H]1CC(C)(C)C [Compound 217]
- activation at 10 µM (Table 12, at 10 μM, read-out: HBE Activity at 10 μM (%)): > 600%

SMILES: Cc1cccc(C)c1-c1cc2nc(n1)NS(=O)(=O)c1cccc(c1)C(=O)N(CC1CCC(C)(C)CO1)[C@H](CC(C)(C)C)CO2 (single isomer, unassigned) [Compound 23]
- EC50 (Table 11): < 1000 nM

The remaining lines, values ahead:

- EC50 (HBE assay): < 1000 nM
- Emax [1]: > 60%
SMILES: COC[C@H]1CCN(c2cnc(CN3C(=O)c4cccc(c4)S(=O)(=O)Nc4nc(cc(-c5c(C)cccc5C)n4)OC[C@H]3CC(C)(C)C)nc2)C1 [Compound 1439]

- activation at 10 µM [2]: > 60%
SMILES: COCC1(CNc2cncc(CN3C(=O)c4cccc(c4)S(=O)(=O)Nc4nc(cc(-c5c(C)cccc5C)n4)OC[C@H]3CC(C)(C)C)n2)CC1 [Compound 1484]

- EC50 (HBE assay): < 1000 nM
- Emax [1]: > 60%
SMILES: CCOc1cnc(CN2C(=O)c3cccc(c3)S(=O)(=O)Nc3nc(cc(-c4c(C)cccc4C)n3)OC[C@H]2CC2(C(F)(F)F)CC2)nc1 [Compound 1490]

- activation at 10 µM (Table 13, at 10 μM, read-out: HBE Activity at 10 μM (%)): > 600%
SMILES: Cc1cccc(C)c1-c1cc2nc(n1)NS(=O)(=O)c1cccc(c1)C(=O)N(Cc1ccc(C3CC4(C3)CC(C)(C)C4)cn1)[C@H](CC(C)(C)C)CO2 [Compound 1057]

- EC50 (HBE assay): < 1000 nM
- Emax [1]: > 60%
SMILES: CCOc1cnc(CN2C(=O)c3cccc(c3)S(=O)(=O)Nc3nc(cc(-c4c(C)cccc4C)n3)OC[C@H]2CC(C)(C)C(F)(F)F)nc1 [Compound 1489]

- EC50 (HBE assay): < 1000 nM
- Emax [1]: > 60%
SMILES: Cc1cccc(C)c1-c1cc2nc(n1)NS(=O)(=O)c1cccc(c1)C(=O)N(Cc1ncc(OC(F)(F)F)cn1)[C@H](CC(C)(C)C)CO2 [Compound 1425]

- activation at 10 µM [2]: > 60%
SMILES: CCC1(CO)CCCN1c1cccc(CN2C(=O)c3cccc(c3)S(=O)(=O)Nc3nc(cc(-c4c(C)cccc4C)n3)OC[C@H]2CC(C)(C)C)n1 (stereo in doubt) [Compound 1458]

- EC50 (HBE assay): < 1000 nM
- Emax [1]: > 60%
SMILES: Cc1cccc(C)c1-c1cc2nc(n1)NS(=O)(=O)c1cccc(c1)C(=O)N(Cc1ncc(OCC(F)F)cn1)[C@H](CC(C)(C)C)CO2 [Compound 1416]
